Patent US8563236B2, “Mutational profiles in HIV-1 reverse transcriptase correlated with phenotypic drug resistance” (priority 1999, dated 2013)

Legend:
Format in all cases: cell-based, HIV-1
wild-type HXB2-D virus = assay: MT-4 cell CPE protection assay, wild-type control virus
Method: (§1) Mutations were created in HIV-1 RT by site-directed mutagenesis and the mutant RT was then transferred into the HXB2-D wild-type virus background. The specific mutations created in this background are indicated. The nucleoside susceptibility of mutant viruses (fold increase in IC50 value relative to wild-type HXB2-D virus control) was assessed as described in ‘Methods’.
(§2) MT-4 cells (Harada S., et al, Science 229: 563-566 (1985).) were co-transfected with pol gene PCR fragments and the protease-RT deleted HIV-1 molecular clone, pGEM3ΔPRT, as described. See Hertogs K., et al., Antimicrob. Agents Chemother. 42: 269-276 (1998). […] Phenotypic susceptibility to nucleoside analogues was determined using an MT-4 cell viral cytopathic effect (CPE) protection assay as described. Id. Fold resistance values were derived by dividing the mean IC50 for a patient's recombinant virus by the mean IC50 for wild-type control virus (strain HXB2-D).
(§3) Mutations in the RT coding region were created by site-directed mutagenesis of a wild-type HXB2-D EcoRI-PstI restriction enzyme fragment, encompassing the HIV-1 pol gene and cloned into pGEM3 (Promega). Single and multiple nucleotide changes were introduced into RT using the ExSite mutagenesis kit (Strategene). All mutant clones were verified by DNA sequence analysis of the entire RT. PCR fragments were prepared from the mutated clones and the altered RT coding regions were transferred into the HIV-1 HXB2-D genetic background by homologous recombination as described above. The susceptibility of these recombinant viruses to nucleoside analogues was subsequently determined by the MT-4 cell CPE protection assay. Id.

[1] = test system: HXB2-D virus with RT 210W, 215Y, 62V; assay: MT-4 cell CPE protection assay, site-directed mutant virus
Method: as §1, §2, §3

[2] = test system: HXB2-D virus with RT 210W, 215Y; assay: as above
Method: as §1, §2, §3

[3] = test system: HXB2-D virus with RT 69S-[S-S], 210W, 215Y, 62V; assay: as above
Method: as §1, §2, §3

[4] = test system: HXB2-D virus with RT 69S-[S-S], 210W, 215Y; assay: as above
Method: as §1, §2, §3

[5] = test system: HXB2-D virus with RT 69S-[S-S]; assay: as above
Method: as §1, §2, §3

[6] = test system: mutants carrying mutation 184V; assay: Drug susceptibility assay, site-directed mutants (group statement); conditions: high resistance caused by mutation 184V
Method: Phenotypic analysis was performed using the recombinant virus assay. See Kellam, P., and B. A. Larder. Antimicrob Agents Chemother 38:23-30 (1994); Hertogs, K., et al., Agents Chemother. 42:269-276 (1998); Pauwels, R., et al., Abstracts of the 2nd International Workshop on HIV Drug Resistance and Treatment Strategies, Abstr. 51. Lake Maggiore, Italy (1998). Briefly, protease (PR) and reverse transcriptase (RT) coding sequences were amplified from patient-derived viral RNA with HIV-1 specific primers. After homologous recombination of amplicons into a PR-RT deleted proviral clone, the resulting recombinant viruses were harvested, titrated and used for in vitro susceptibility testing to antiretroviral drugs. The results of this analysis were expressed as fold-resistance values, reflecting the fold-increase in mean IC50 (μM) of a particular drug when tested with patient-derived recombinant virus isolates, relative to the mean IC50 (μM) of the same drug obtained when tested with a reference wild-type virus isolate (IIIB/LAI).
For the modeling studies, mutations were generated in the RT gene of HXB2, a wild-type laboratory HIV-1 strain, using the QuikChange^J Site-Directed Mutagenesis Kit, Stratagene^7, Stratagene Cloning systems, La Jolla, Calif., USA.
Two of them carried both 44D/A and 181I, while all but one (SDM23) carried ZDV resistance-correlated mutations. […]

[7] = test system: variants with the 69S-[S-S] insert plus AZT resistance mutations; assay: MT-4 cell CPE protection assay, site-directed mutant viruses (group statement)
Method: as §2
as §3, with “Id. […]” for “Id.”

[8] = test system: codon 151 cluster viruses
Excerpt: (§4) FIG. 2: Nucleoside analogue susceptibility of MDR patient-derived recombinant HIV variants. Recombinant viruses were produced from patient plasma samples as described in Example 2 and tested for susceptibility to (a) d4T, (b) ddC and (c) ddI. […] Error bars indicate standard errors. Note that the total number (n=310) is higher than the 302 MDR samples described because a small minority were 69D/N and 75M double mutants and are represented in both groups.
as §2
(§5) From this analysis, 302 samples were identified with four-fold or greater increases in IC50 (relative to a wild-type control virus) to at least four of these inhibitors. Thus, a substantial number of MDR viruses were present in the sample population.
(§6) Genotypic analysis was performed on all 892 samples by dideoxy-nucleotide sequencing. […] A comparison of the incidence of specific RT mutations in MDR samples versus non-MDR in the population surveyed is shown in FIG. 1. This analysis highlighted the incidence of the codon 151 mutational cluster in the MDR group. In addition, a novel family of amino acid insertions and rearrangements between codons 67 and 70 were also prevalent in the MDR group. These two patterns of mutations were correlated with high-level phenotypic multi-nucleoside resistance (FIG. 2), 27 samples having the codon 151 cluster and 45 samples having insertions and rearrangements (typically a T69S substitution, followed by insertion of two amino acids).

[9] = test system: codon 69 insertion mutants
Excerpt: as §4, §2, §5, §6

[10] = test system: samples with AZT and 3TC resistance mutations plus T69A/N or V175M; assay: Recombinant virus assay, MDR patient-derived recombinant HIV variants
Excerpt: as §4, §2, §5
Genotypic analysis was performed on all 892 samples by dideoxy-nucleotide sequencing. […]

[11] = test system: HXB2-D virus with T69A or V75M in a background of AZT mutations; assay: MT-4 cell CPE protection assay, site-directed mutant viruses
Method: as §2, §3
To investigate the significance of the observed mutational patterns correlated with MDR virus we constructed a series of viruses by site-directed mutagenesis with specific changes in a defined genetic background (HXB2-D). […] In addition, the potential role of A62V, a substitution also frequently correlated with the insertions was investigated by adding this mutation to a background of 69S-[S-S] plus 210W/215Y.

[12] = Human immunodeficiency virus 1, MT4, mean values

| SMILES | IC50 (wild-type HXB2-D virus; [12]) | Fold increase in IC50 ([1]; {}) | Fold increase in IC50 ([2]; {}) | Fold increase in IC50 ([3]; {}) | Fold increase in IC50 ([4]; {}) | Fold increase in IC50 ([5]; {}) | resistance (fold) [6] | susceptibility [7] | IC50 (wild-type HXB2-D virus; mean values) | Fold increase in IC50 ([1]; mutant genotype 210W, 215Y, 62V, relative to wild-type HXB2-D, mean of two determinations) | Fold increase in IC50 ([2]; mutant genotype 210W, 215Y, relative to wild-type HXB2-D, mean of two determinations) | Fold increase in IC50 ([3]; mutant genotype 69S-[S-S], 210W, 215Y, 62V, relative to wild-type HXB2-D, mean of two determinations) | Fold increase in IC50 ([4]; mutant genotype 69S-[S-S], 210W, 215Y, relative to wild-type HXB2-D, mean of two determinations) | Fold increase in IC50 ([5]; mutant genotype 69S-[S-S], relative to wild-type HXB2-D, mean of two determinations) | mean fold increase in IC50 (resistance) [8] | mean fold increase in IC50 (resistance) [9] | level of resistance [10] | resistance conferred [11] |
| --- | --- | --- | --- | --- | --- | --- | --- | --- | --- | --- | --- | --- | --- | --- | --- | --- | --- | --- |
| Nc1ccn([C@@H]2CS[C@H](CO)O2)c(=O)n1 [3TC, lamivudine] | 1.67 µM | 1.3 fold | 3.8 fold | 15 fold | 20 fold | 6.2 fold | > 62 fold | – | – | – | – | – | – | – | – | – | – | – |
| Cc1cn([C@H]2C[C@H](N=[N+]=[N-])[C@@H](CO)O2)c(=O)[nH]c1=O [AZT, zidovudine] | – | – | – | – | – | – | – | decreased susceptibility | – | – | – | – | – | – | – | – | – | – |
| Nc1nc(NC2CC2)c2ncn(C3C=CC(CO)C3)c2n1 (stereo not drawn) [compound 1592, 4-[(2-amino-6-cyclopropyl-amino)-9H-purin-9-yl]-2-cyclopentene-1-methanol] | – | – | – | – | – | – | – | decreased susceptibility | 2.9 µM | 0.7 fold | 1.5 fold | 5.4 fold | 4.6 fold | 2.6 fold | – | – | – | – |
| Cc1cn([C@H]2C=C[C@@H](CO)O2)c(=O)[nH]c1=O [d4T, stavudine] | 2.39 µM | 0.7 fold | 1.1 fold | 5.2 fold | 4.8 fold | 2.3 fold | – | – | – | – | – | – | – | – | > 10 fold | > 10 fold | modest levels of resistance | little or no resistance |
| Nc1ccn([C@H]2CC[C@@H](CO)O2)c(=O)n1 [ddC, zalcitabine] | 1.41 µM | 0.8 fold | 1.2 fold | 2.7 fold | 4.2 fold | 2.1 fold | – | – | – | – | – | – | – | – | > 10 fold | > 10 fold | modest levels of resistance | little or no resistance |
| O=c1[nH]cnc2c1ncn2[C@H]1CC[C@@H](CO)O1 [ddI, didanosine] | 4.6 µM | 0.5 fold | 1.2 fold | 1.8 fold | 2.1 fold | 1.7 fold | – | – | – | – | – | – | – | – | – | – | – | little or no resistance |
